The cell viability is the share of living cells, or the viability signal relative to a control. Read a high cell viability as less harm to the cells.

Where a SMILES comes first, the peptide text is derived from it. Where no end group is shown, it is not given here. The star is where a group is joined. X1 = Nc1ccn([C@@H]2O[C@H](COC(=O)CCC(=O)*)[C@@H](O)C2(F)F)c(=O)n1

Series [1] relates to A549 cells. Nature of the series: Cytotoxicity of blank CPPs by MTT assay. The note with it: 72 h peptide exposure. The protocol: (§1) A549 lung carcinoma cell line was obtained from the Pasteur Institute (Iran). Cells were maintained in RPMI 1640 medium supplemented with 10 % FBS, 100 units/ml penicillin, and 100 μg/ml streptomycin and grown at 37 °C in a 5 % CO2 humidified atmosphere.
(§2) A549 cells were seeded into 96-well plates at a density of 1.5 × 10^4 cells/well and pre-incubated for 24 h. The next day, different concentrations of peptides were added to the culture medium. Cells were incubated at 37 °C for 72 h. The medium was removed and the wells were washed with PBS. The MTT assay was performed by introducing 50 μl of 2 mg/ml MTT to each well for 4 h. The culture media aspirated and then resulting formazan crystals were dissolved in DMSO and the absorbance of individual wells was obtained at 570 nm. Untreated cells were defined as 100 % viable.
In general terms: Tetrazolium dyes change colour on reduction, which living cells bring about.

The subject of series [2] is A549 cells. Nature of the series: Fluorescent microscopy of uptake and intracellular localization of FITC-labeled peptides. Format: cell-based. The note with it: FITC-labeled peptide, 25 µM, 1.5 h at 37 °C, live A549 cells, fluorescence read-out. Here is the method: The cellular uptake of the FITC-labeled peptide was examined in A549 cell line. A549 cells were seeded with RPMI 1640 medium on coverslips in 6-well plates and allowed to adhere overnight. Then the medium was removed and washed with PBS. The cells were treated with FITC-labeled peptide for 1.5 h at 37 °C. After incubation, the media containing the compound were removed and the cells were washed with PBS three times. Coverslips were placed on a microscope slide (Olympus IX81 fluorescence microscope, Olympus Optical Co., Ltd., Tokyo, Japan).
The uptake and intracellular localization of FITC-labeled peptides were examined by fluorescent microscopy. […] The uptake of all peptides was examined at the concentration of 25 µM.
Figure 4 Fluorescence microscopy, visualization of FITC-labeled, R5W3R4 (A, B), [RW]6 (C, D), [RW]5 (E, F), [RW]4 (G, H), and [RW]3 (I, J) in A459 cells. The top photos show fluorescence microscopy and the bottom bright field of A459 cells. Live cells were treated with 25 µm of peptides for 1.5 h at 37 °C. Control cells were incubated in RPMI medium without the peptides.

Series [3] has as its system A549 cells. Nature of the series: Flow cytometry of cellular uptake of FITC-labeled peptides. The note with it: FITC-labeled peptide, 1.5 h at 37 °C, trypsin treatment to remove surface-bound peptide, FACSCalibur. The series is classed as cell-based. The protocol: A549 cells were seeded with RMPI 1640 medium in 6-well plates (3×10^5 cells/well) 24 h prior to the experiment. After 24 h, the medium was removed and washed with PBS. Then FITC-labeled peptide was added to the cells. The plates were incubated for 1.5 h at 37 °C. After that, the medium containing the peptide was removed. The cells were washed three times with PBS and detached with 0.25 % trypsin/EDTA (0.53 mM) for 5 min. To each well, 2 ml of the medium was added and centrifuged for 4 min. Cells were washed twice with PBS and finally were re-suspended in flow cytometry buffer and analyzed by FACSCalibur (Becton Dickinson, San Jose, CA, USA).
Flow cytometry was used to determine the relative amounts of internalized peptide after 1.5 h incubation at 37 °C. After the incubation, cells were treated with trypsin to remove the cell surface-bound peptides. […] The percentage of cell fluorescence was increased with increasing peptides concentration. This effect was nearly linear for the tested concentrations. There was an increase in fluorescence intensity of cells treated with peptides of higher amino acid content.
Figure 5 Cellular uptake of FITC-labeled peptides in live A549 cells after incubation. The uptake was measured as the relative fraction of positive cells (%) from flow cytometry analysis of all living cells positive for the fluorophore.
Background: A flow cytometer gives signals particle by particle.

Series [4] relates to A549 cells. Nature of the series: Antitumor activity of free gemcitabine and Gem-CPP conjugates by MTT test. The note with it: for cell viability / cytotoxicity in comparison to the free drug: 72 h, 15 and 25 µM where stated; for cell viability: 72 h incubation, 10 % FBS. Here is the method:
as §1, §2
The antitumor activity of free gemcitabine and its conjugates with CPPs (Gem-CPP) was investigated using MTT test after incubation for 72 h. The activity of drug-peptide conjugates i.e. Gem-R5W3R4, Gem-[RW]6, Gem-[RW]5, Gem-[RW]4 and Gem-[WR]3, was evaluated and compared with that of the free drug (Figure 6(Fig. 6)).
Figure 6 Toxicity of Gem-R5W3R4 (A), Gem-[RW]6 (B), Gem-[RW5] (C), Gem-[RW]4 (D), Gem-[RW]3 (E) and Gem to A549 cells. The cells were incubated for 3 days in 10 % FBS with or without peptides and analyzed for proliferation by MTT assay.

The molecule RRRRRWWWRRRR-NH2 [R5W3R4] displayed a cell toxicity value with A549 cells [1] (25 µM) of 9%. In the series on A549 cells [1] (50 µM), this molecule yielded a cell death of 28%. The “intracellular distribution (fluorescent microscopy)” value with A549 cells [2] is given as “homogeneous staining throughout the intracellular space”. Moreover, the “intracellular fluorescence, relative fraction of positive cells (flow cytometry)” value in the series on A549 cells [3] is reported as “maximum intracellular fluorescence”.
On to `N=C(N)NCCC[C@H](NC(=O)[C@H](CCCNC(=N)N)NC(=O)[C@H](CCCNC(=N)N)NC(=O)[C@H](CCCNC(=N)N)NC(=O)[C@H](Cc1c[nH]c2ccccc12)NC(=O)[C@H](Cc1c[nH]c2ccccc12)NC(=O)[C@H](Cc1c[nH]c2ccccc12)NC(=O)[C@H](CCCNC(=N)N)NC(=O)[C@H](CCCNC(=N)N)NC(=O)[C@H](CCCNC(=N)N)NC(=O)[C@H](CCCNC(=N)N)NC(=O)[C@H](CCCNC(=N)N)NC(=O)CCC(=O)OC[C@H]1O[C@@H](n2ccc(N)nc2=O)C(F)(F)[C@@H]1O)C(N)=O` [Gem-R5W3R4] (X1-RRRRRWWWRRRR-NH2), for which the “cell viability / cytotoxicity in comparison to the free drug” value in the series with A549 cells [4] is “decreased cell viability”.
Regarding `N=C(N)NCCC[C@H](NC(=O)CCC(=O)OC[C@H]1O[C@@H](n2ccc(N)nc2=O)C(F)(F)[C@@H]1O)C(=O)N[C@@H](Cc1c[nH]c2ccccc12)C(=O)N[C@@H](CCCNC(=N)N)C(=O)N[C@@H](Cc1c[nH]c2ccccc12)C(=O)N[C@@H](CCCNC(=N)N)C(=O)N[C@@H](Cc1c[nH]c2ccccc12)C(=O)N[C@@H](CCCNC(=N)N)C(=O)N[C@@H](Cc1c[nH]c2ccccc12)C(=O)N[C@@H](CCCNC(=N)N)C(=O)N[C@@H](Cc1c[nH]c2ccccc12)C(=O)N[C@@H](CCCNC(=N)N)C(=O)N[C@@H](Cc1c[nH]c2ccccc12)C(N)=O` [Gem-[RW]6], the “cell viability / cytotoxicity in comparison to the free drug” value in the series with A549 cells [4] is “decreased cell viability”.
As for `Nc1ccn([C@@H]2O[C@H](CO)[C@@H](O)C2(F)F)c(=O)n1` [Free drug, Gemcitabine], the cell viability with A549 cells [4] (15 µM) and in the series with A549 cells [4] (25 µM) was 20% throughout.

For the origin of these results see article PMC5491906, “Cellular uptake and anti-tumor activity of gemcitabine conjugated with new amphiphilic cell penetrating peptides” (EXCLI Journal, 2017).
